Patent US9120787B2, “HIV replication inhibitors” (priority 2011, dated 2015)

Columns and labels:
HIV-1Ba-L [1] = assay: Inhibition of virus replication in MAGI-CCR5 cells (β-galactosidase reporter); format: cell-based; details: HIV-1Ba-L in MAGI-CCR5 cells; for IC50: Human immunodeficiency virus 1, 48 hours, β-galactosidase reporter expression, read-out: IC50
Procedure: (§1) The anti-viral activity of dihydropyrimidines was shown by inhibition of virus replication in MAGI-CCR5 cells. MAGI-CCR5 cells are derived from HeLa-CD4-LTR-β-galactosidase cells. The cells have been engineered to express high levels of CD4 and CCR5 and contain one copy of the HIV-1 LTR promoter driving expression of the β-galactosidase gene upon HIV-1 Tat transactivation. On the day preceding the assay, the cells were plated at 1.0×10^4 cells per well and maintained at 37° C. and 5% CO2 in a humidified incubator. Total cell count and viability was visually assessed using a hemacytometer and trypan blue exclusion.
Compounds were evaluated at six concentrations (triplicate wells/concentration). On the day of assay setup, compound dilutions were prepared at two-times (2×) the final concentrations. Media was decanted and wells were replenished with 50 μl of 2× compounds, followed by the addition of 50 μl of diluted virus. Identical uninfected assays were prepared for parallel cytotoxicity testing.
Evaluation of Dihydropyrimidines vs. HIV-1Ba-L in MAGI-CCR5 Cells

[2] = Cytotoxicity by MTS staining in uninfected MAGI-CCR5 cells; format: cell-based; details: human, read-out: TC50
Procedure: as §1, with “exclusion. Compounds were evaluated at six concentrations (triplicate wells/concentration). On the day of assay setup, compound dilutions were prepared at two-times (2×) the final concentrations. Media was decanted and wells were replenished with 50 μl of 2× compounds, followed by the addition of 50 μl of diluted virus. Identical uninfected assays were prepared for parallel cytotoxicity testing.” for “exclusion.”

HIV-1Ba-L [3] = assay: HIV-1Ba-L replication in PBMCs (supernatant RT end-point); details: for IC50: Human immunodeficiency virus 1, PBMC, 168 h; for TI (TC50/IC50): HIV-1Ba-L in PBMCs
Procedure: Evaluation of Dihydropyrimidines vs. HIV-1Ba-L in Peripheral Blood Mononuclear Cells (PBMCs)
Cultures of pooled phytohemagglutinin stimulated peripheral blood mononuclear cells (PBMC) were seeded into a 96-well plate at plating density of 5×10^4 cells/well. Compounds were serially diluted into media in ½-log increments using a high test of […] and […] of each concentration (nine total concentrations). Cells were infected with HIV strains HIV-1Ba-L and NL4-3 at an MOI=0.1. The PBMCs were cultured for seven days in an humidified incubator maintained at 37° C., 5% CO2 atmosphere. At the assay end-point, the supernatant was collected and analyzed for reverse transcriptase activity. For the RT assay, tritiated thymidine triphosphate (3H-TTP, 80 Ci/mmol) was diluted 1:1 dH2O:Ethanol at 1 mCi/ml. Poly rA:oligo dT template:primer was prepared as a stock solution by combining 150 μl poly rA (20 mg/ml) with 0.5 mL oligo dT (20 units/ml) and 5.35 ml sterile dH2O followed by aliquoting (1.0 ml) and storage at −20° C. The RT reaction buffer contained of 125 ml 1.0 M EGTA, 125 ml dH2O, 125 ml 20% Triton X100, 50 ml 1.0 M Tris (pH 7.4), 50 ml 1.0 M DTT, and 40 ml 1.0 M MgCl2. The final reaction mixture was prepared by combining 1 part 3H-TTP, 4 parts dH2O, 2.5 parts poly rA:oligo dT stock and 2.5 parts reaction buffer. To each well, ten microliters of the reaction mixture and 15 μl of virus containing supernatant were added. The plates were incubated at 37° C. for 60 minutes. Following incubation, the reaction volume was spotted onto DE81 filter-mats, washed 5 times for 5 minutes each in a 5% sodium phosphate buffer or 2×SSC. […] were washed 2 times for 1 minute each in distilled water, 2 times for 1 minute each in 70% ethanol, and then dried. Incorporated radioactivity (counts per minute, CPM) was quantified using standard liquid scintillation techniques.

[4] = Cytotoxicity by MTS staining in PBMCs; format: cell-based; details: human, peripheral blood mononuclear cells (PBMC), MTS staining, read-out: TC50
Procedure: Cytotoxicity was assessed by MTS staining. At assay end-point, PBMC were stained with the addition of […] of the soluble tetrazolium-based dye MTS to determine cell viability and quantify compound toxicity. The plates were incubated 4 to 6 hrs at 37° C. Following incubation, the activity was assessed by reading absorbance values at 490/650 nm.

Compound	IC50 (HIV-1Ba-L [1]) [µM]	CC50 at 48 h [2] [µM]	IC50 (HIV-1Ba-L [3]) [µM]	CC50 at 7 days [4] [µM]	TI (TC50/IC50) (HIV-1Ba-L [1])	TI (TC50/IC50) (HIV-1Ba-L [3])
c1cc(CN2CCCNCCNCCCNCC2)ccc1CN1CCCNCCNCCCNCC1 [AMD 3100, reference compound]	> 10	> 10	> 10	> 10		
CC1=C(c2nc(-c3ccc(C#N)cc3)cs2)C(c2ccc(Cl)nc2)NC(=O)N1 (stereo not shown) [Example 3]	1 to 5	≥ 100	< 1	≥ 100	A (A = TI (TC50/IC50) ≧ 100.0)	A (A = TI (TC50/IC50) ≧100.0)
CC1=C(c2nc(-c3ccc(C#N)cc3)cs2)C(c2ccnc3ccccc23)NC(=O)N1 (stereo not shown) [Example 15]	1 to 5	≥ 100	1 to 5	≥ 100	B (B < 100.0-50.0)	B (B < 100.0-50.0)
CC1=C(c2nc(-c3ccc(C#N)cc3)cs2)C(c2ccc(=O)[nH]c2)NC(=O)N1 (stereo not shown) [Example 18]	> 100	≥ 100	> 100	≥ 100	D (D < 10.0)	D (D < 10.0)
CC1=C(c2nc(-c3ccc(C#N)cc3)cs2)C(c2ccc3cccc(O)c3n2)NC(=O)N1 (stereo not shown) [Example 23]	< 1	50 to 100	< 1	≥ 100	A (A = TI (TC50/IC50) ≧ 100.0)	A (A = TI (TC50/IC50) ≧100.0)
COc1ccc(C2NC(=O)NC(C)=C2c2nc(-c3ccc(C#N)cc3)cs2)cn1 (stereo not shown) [Example 25]	< 1	≥ 100	< 1	≥ 100	A (A = TI (TC50/IC50) ≧ 100.0)	A (A = TI (TC50/IC50) ≧100.0)
COc1cncc(C2NC(=O)NC(C)=C2c2nc(-c3ccc(C#N)cc3)cs2)c1 (stereo not shown) [Example 26]	5 to 100	≥ 100	1 to 5	≥ 100	D (D < 10.0)	C (C < 50.0-10.0)
COc1cccc(C2NC(=O)NC(C)=C2c2nc(-c3ccc(C#N)cc3)cs2)n1 (stereo not shown) [Example 28]	1 to 5	≥ 100	1 to 5	≥ 100	B (B < 100.0-50.0)	B (B < 100.0-50.0)
CC1=C(c2nc(-c3ccc(C#N)cc3)cs2)C(c2cccnc2F)NC(=O)N1 (stereo not shown) [Example 29]	< 1	≥ 100	< 1	≥ 100	A (A = TI (TC50/IC50) ≧ 100.0)	A (A = TI (TC50/IC50) ≧100.0)
CC1=C(c2nc(-c3ccc(C#N)cc3)cs2)C(c2ccncc2F)NC(=O)N1 (stereo not shown) [Example 30]	> 100	≥ 100	> 100	≥ 100	D (D < 10.0)	D (D < 10.0)
CC1=C(c2nc(-c3ccccc3)cs2)C(c2cccc(O)c2)NC(=O)N1 (stereo not shown) [Example 33]	5 to 100	≥ 100	5 to 100	50 to 100	D (D < 10.0)	D (D < 10.0)
CC1=C(c2nc(-c3ccc(Br)cc3)cs2)C(c2cccc(O)c2)NC(=O)N1 (stereo not shown) [Example 35]	1 to 5	50 to 100	1 to 5	50 to 100	C (C < 50.0 to 10.0)	C (C < 50.0-10.0)
CC1=C(c2nc(-c3ccc4ccccc4c3)cs2)C(c2cccc(O)c2)NC(=O)N1 (stereo not shown) [Example 36]	5 to 100	50 to 100	5 to 100	< 50	D (D < 10.0)	D (D < 10.0)
CC1=C(c2nc(-c3cccc(C#N)c3)cs2)C(c2ccc(O)cc2)NC(=O)N1 (stereo not shown) [Example 67]	5 to 100	50 to 100			D (D < 10.0)	
COc1ccc(C2NC(=O)NC(C)=C2c2nc(-c3ccc(C#N)cc3)cs2)cc1O (stereo not shown) [Example 72]	< 1	≥ 100			A (A = TI (TC50/IC50) ≧ 100.0)	
CC1=C(c2nc(-c3ccc(C)cc3)cs2)C(c2cccc(O)c2)NC(=O)N1 (stereo not shown) [Example 73]	5 to 100	50 to 100			D (D < 10.0)	
CC1=C(c2nc(-c3ccc(C(F)(F)F)cc3)cs2)C(c2cccc(O)c2)NC(=O)N1 (stereo not shown) [Example 75]	5 to 100	< 50			D (D < 10.0)	
CC1=C(c2nc(-c3ccc([N+](=O)[O-])cc3)cs2)C(c2cccc(O)c2)NC(=O)N1 (stereo not shown) [Example 76]	< 1	≥ 100			A (A = TI (TC50/IC50) ≧ 100.0)	
CC1=C(c2nc(-c3ccc(C#N)cc3)cs2)C(c2cc(C(F)(F)F)cc(C(F)(F)F)c2)NC(=O)N1 (stereo not shown) [Example 77]	> 100	≥ 100			D (D < 10.0)	
CC1=C(c2nc(-c3ccc(C#N)cc3)cs2)C(c2cc(O)ccc2O)NC(=O)N1 (stereo not shown) [Example 78]	5 to 100	≥ 100			D (D < 10.0)	
CC1=C(c2nc(-c3ccc(C#N)cc3)cs2)C(c2ccc(O)c(O)c2)NC(=O)N1 (stereo not shown) [Example 79]	< 1	≥ 100			A (A = TI (TC50/IC50) ≧ 100.0)	
CC1=C(c2nc(-c3ccc(C#N)cc3C)cs2)C(c2cccnc2F)NC(=O)N1 (stereo not shown) [Example 82]	< 1	50 to 100			A (A = TI (TC50/IC50) ≧ 100.0)	
CC1=C(c2nc(-c3ccc(C#N)cc3C)cs2)C(c2ccc(Br)nc2)NC(=O)N1 (stereo not shown) [Example 84]	< 1	< 50			B (B < 100.0-50.0)	
COc1ccc(C2NC(=O)NC(C)=C2c2nc(-c3ccc(C#N)cc3C)cs2)cn1 (stereo not shown) [Example 85]	< 1	< 50			B (B < 100.0-50.0)	
CC1=C(c2nc(-c3ccc(C#N)cc3)cs2)C(Cc2ccccc2)NC(=O)N1 (stereo not shown) [Example 88]	1 to 5	≥ 100			C (C < 50.0 to 10.0)	
CC1=C(c2nc(-c3ccc(C#N)cc3)cs2)C(Cc2ccc(C)cc2)NC(=O)N1 (stereo not shown) [Example 94]	1 to 5	50 to 100			C (C < 50.0 to 10.0)	
CC1=C(c2nc(-c3ccc(F)cc3)cs2)C(Cc2ccc(C)cc2)NC(=O)N1 (stereo not shown) [Example 95]	> 100	≥ 100			D (D < 10.0)	
CC(C)(C)NC(=O)[C@@H]1CN(Cc2cccnc2)CCN1C[C@@H](O)C[C@@H](Cc1ccccc1)C(=O)N[C@H]1c2ccccc2C[C@H]1O [Indinavir, reference compound]			0.048	> 1		>21.0
